From patent US20220356174A1, “PYRIDIN-2-ONE COMPOUNDS USEFUL AS SMARCA2 ANTAGONISTS” (Epizyme, Inc., priority 2018, published 2022)
Each block holds one molecule with its values, some of them ahead of it.

Legend:
[1] = biological target: T1, FL-SMARCA2 (full-length human SMARCA2 isoform 1) (Homo sapiens, UniProt P51531); assay: SMARCA2 ATPase activity assay (ADP-Glo, chicken mononucleosome substrate); format: biochemical; settings: ATPase assay, enzyme 5 nM, ATP 250 uM, chicken mononucleosome 10 nM, 30 min preincubation
T1 construct: FLAG tag (YKDDDDK) (C); made in house; host or cells: Sf21 insect cells (baculovirus, pFastBacI)

FL-SMARCA4 = FL-SMARCA4 (Homo sapiens, UniProt P51532); assay: SMARCA4 ATPase activity assay (ADP-Glo, chicken mononucleosome substrate); settings: ATPase assay, enzyme 5 nM, ATP 250 uM, chicken mononucleosome 10 nM, 30 min preincubation
[2] = tested on: various lung cancer cell lines; assay: Long term proliferation (LTP) assay in various cancer cell lines; format: cell-based
Description: The following cell lines were evaluated in an adherent cell line proliferation assay described herein: A549, HCC15, COV434, NCIH460, NCIH358, NCIH358-SMARCA2, NCIH358-SMARCA, NCIH1703, NCIH838, NCIH322, NCIH2122, NCIH2023, NCIH1355, NCIH1693, NCIH441, NCIH2030, NCIH1573, NCIH1373, NCIH1650, and NCIH1693. Plating densities for each cell line were determined based on growth curves (measured by ATP viability) and density over a 7 day timecourse. On the day before compound treatment, cells were plated in either 96-well plates in triplicate (for the day 0-7 timecourse) or 6-well plates (for replating on day 7 for the remainder of the timecourse). On Day 0, cells were either untreated, DMSO-treated, or treated with increasing concentrations of Compound 139 up to 10 μM. Plates were read on Day 0, Day 4, and Day 7 using a luminescent cell viability assay, with compound/media being replenished on Day 4. On Day 7, the 6-well plates were trypsinized, centrifuged, and resuspended in fresh media for counting by Vi-Cell. Cells from each treatment were replated at the original density in 96-well plates in triplicate. Cells were allowed to adhere to the plate overnight, and cells were treated as on Day 0. On Day 7, 11 and 14, plates were read using a luminescent cell viability assay, with compound/media being replenished on Day 11. Averages of triplicates were used to plot proliferation over the timecourse, and calculate IC50 values.
The following cell lines were evaluated in an adherent cell line proliferation assay described herein: NCIH522, CORL23, NCIH1693, NCIH1838, HCC1588, NCIH1435, NCIH2085, HCC827, NCIH1792, NCIH596, NCIH1568, NCIH1793, NCIH2126, CORL105, NCIH1573, NCIH1693, NCIH1395, HCC44, NCIH2126, NCIH520, NCIH1373, NCIH2172, NCIH23, HCT116, […], NCIH2347, NCIH2110, NCIH647, NCIH1437, AGS, KMS11, BT549, HUPT4, NCIH1048, TE10, and TE14. Cell densities were determined by growth curve as per protocol 1. For the proliferation assay, on Day 0, cells were either untreated, DMSO-treated, or treated with increasing concentrations of Compound 139 up to 10 μM. Plates were read on Day 0, Day 4, and Day 7 using luminescent cell viability assay. On Day 7, the 6-well plates were trypsinized, centrifuged, and resuspended in fresh media for counting by Vi-Cell. Cells from each treatment were replated at the original density in 96-well plates in triplicate. Cells were treated with compound as on Day 0. On Day 7, 11 and 14, plates were read using a luminescent cell viability assay. Averages of triplicates were used to plot proliferation over the timecourse, and calculate IC50 values.

A549 cells = assay: Long term proliferation (LTP) assay, day 15 IC50 in A549 cells; format: cell-based; settings: Homo sapiens, 360 h
[3] = Homo sapiens, A549, A549, SMARCA4 protein Absent, Lung NSCLC adenocarcinoma
[4] = Homo sapiens, COR-L105, CORL105, SMARCA4 protein Present, Lung NSCLC adenocarcinoma
[5] = Homo sapiens, HCT-116, HCT116, SMARCA4 protein Present, Colon Cancer
[6] = Homo sapiens, NCI-H358, NCIH358, SMARCA4 protein Present, Lung NSCLC bronchioloalveolar adenocarcinoma
[7] = Homo sapiens, NCI-H358, NCIH358 SMARCA4, SMARCA4 protein Absent, Lung NSCLC bronchioloalveolar adenocarcinoma
[8] = Homo sapiens, NCI-H460, NCIH460, SMARCA4 protein Present, Lung NSCLC large cell carcinoma
[9] = Homo sapiens, NCI-H522, NCIH522, SMARCA4 protein Absent, Lung NSCLC adenocarcinoma
[10] = Homo sapiens, NCI-H1299, NCIH1299, Lung NSCLC non small cell carcinoma
[11] = NCI-H1568, NCIH1568, SMARCA4 protein Absent, Lung NSCLC adenocarcinoma
[12] = NCIH2085, SMARCA4 protein Present, Lung NSCLC adenocarcinoma
[13] = RERFLCAI, SMARCA4 protein Absent, Lung NSCLC squamous cell carcinoma
[14] = HCC15, HCC15, SMARCA4 protein Absent, Lung NSCLC squamous cell carcinoma
[15] = Homo sapiens, COR-L23, CORL23, SMARCA4 protein Present, Lung NSCLC large cell carcinoma
[16] = Homo sapiens, Calu-6, CALU6, SMARCA4 protein Present, Lung NSCLC undifferentiated carcinoma
[17] = Homo sapiens, HCC44, HCC44, SMARCA4 protein Present, Lung NSCLC adenocarcinoma
[18] = Homo sapiens, NCI-H23, NCIH23, SMARCA4 protein Absent, Lung NSCLC non small cell carcinoma
[19] = Homo sapiens, NCI-H358, NCIH358 SMARCA2, SMARCA4 protein Present, Lung NSCLC bronchioloalveolar adenocarcinoma
[20] = Homo sapiens, NCI-H441, NCIH441, SMARCA4 protein Present, Lung NSCLC adenocarcinoma
[21] = Homo sapiens, NCI-H596, NCIH596, Lung NSCLC mixed adenosquamous carcinoma
[22] = Homo sapiens, NCI-H810, NCIH810, SMARCA4 protein Present, Lung NSCLC large cell carcinoma
[23] = Homo sapiens, NCI-H1437, NCIH1437, SMARCA4 protein Present, Lung NSCLC adenocarcinoma
[24] = Homo sapiens, NCI-H1563, NCIH1563, SMARCA4 protein Present, Lung NSCLC adenocarcinoma
[25] = Homo sapiens, NCI-H1573, NCIH1573, SMARCA4 protein Absent, Lung NSCLC adenocarcinoma
[26] = Homo sapiens, NCI-H1693, NCIH1693, SMARCA4 protein Absent, Lung NSCLC adenocarcinoma
[27] = Homo sapiens, NCI-H1975, NCIH1975, SMARCA4 protein Present, Lung NSCLC non small cell carcinoma
[28] = Homo sapiens, NCI-H2030, NCIH2030, SMARCA4 protein Absent, Lung NSCLC non small cell carcinoma
[29] = Homo sapiens, NCI-H2122, NCIH2122, SMARCA4 protein Present, Lung NSCLC adenocarcinoma
[30] = Homo sapiens, PANC-1, PANC1, Pancreatic Cancer ductal carcinoma
[31] = Homo sapiens, SW900, SW900, SMARCA4 protein Present, Lung NSCLC squamous cell carcinoma
[32] = Hs766T, Pancreatic Cancer ductal carcinoma

T1 sequence (P51531 with tags, fused parts or gaps): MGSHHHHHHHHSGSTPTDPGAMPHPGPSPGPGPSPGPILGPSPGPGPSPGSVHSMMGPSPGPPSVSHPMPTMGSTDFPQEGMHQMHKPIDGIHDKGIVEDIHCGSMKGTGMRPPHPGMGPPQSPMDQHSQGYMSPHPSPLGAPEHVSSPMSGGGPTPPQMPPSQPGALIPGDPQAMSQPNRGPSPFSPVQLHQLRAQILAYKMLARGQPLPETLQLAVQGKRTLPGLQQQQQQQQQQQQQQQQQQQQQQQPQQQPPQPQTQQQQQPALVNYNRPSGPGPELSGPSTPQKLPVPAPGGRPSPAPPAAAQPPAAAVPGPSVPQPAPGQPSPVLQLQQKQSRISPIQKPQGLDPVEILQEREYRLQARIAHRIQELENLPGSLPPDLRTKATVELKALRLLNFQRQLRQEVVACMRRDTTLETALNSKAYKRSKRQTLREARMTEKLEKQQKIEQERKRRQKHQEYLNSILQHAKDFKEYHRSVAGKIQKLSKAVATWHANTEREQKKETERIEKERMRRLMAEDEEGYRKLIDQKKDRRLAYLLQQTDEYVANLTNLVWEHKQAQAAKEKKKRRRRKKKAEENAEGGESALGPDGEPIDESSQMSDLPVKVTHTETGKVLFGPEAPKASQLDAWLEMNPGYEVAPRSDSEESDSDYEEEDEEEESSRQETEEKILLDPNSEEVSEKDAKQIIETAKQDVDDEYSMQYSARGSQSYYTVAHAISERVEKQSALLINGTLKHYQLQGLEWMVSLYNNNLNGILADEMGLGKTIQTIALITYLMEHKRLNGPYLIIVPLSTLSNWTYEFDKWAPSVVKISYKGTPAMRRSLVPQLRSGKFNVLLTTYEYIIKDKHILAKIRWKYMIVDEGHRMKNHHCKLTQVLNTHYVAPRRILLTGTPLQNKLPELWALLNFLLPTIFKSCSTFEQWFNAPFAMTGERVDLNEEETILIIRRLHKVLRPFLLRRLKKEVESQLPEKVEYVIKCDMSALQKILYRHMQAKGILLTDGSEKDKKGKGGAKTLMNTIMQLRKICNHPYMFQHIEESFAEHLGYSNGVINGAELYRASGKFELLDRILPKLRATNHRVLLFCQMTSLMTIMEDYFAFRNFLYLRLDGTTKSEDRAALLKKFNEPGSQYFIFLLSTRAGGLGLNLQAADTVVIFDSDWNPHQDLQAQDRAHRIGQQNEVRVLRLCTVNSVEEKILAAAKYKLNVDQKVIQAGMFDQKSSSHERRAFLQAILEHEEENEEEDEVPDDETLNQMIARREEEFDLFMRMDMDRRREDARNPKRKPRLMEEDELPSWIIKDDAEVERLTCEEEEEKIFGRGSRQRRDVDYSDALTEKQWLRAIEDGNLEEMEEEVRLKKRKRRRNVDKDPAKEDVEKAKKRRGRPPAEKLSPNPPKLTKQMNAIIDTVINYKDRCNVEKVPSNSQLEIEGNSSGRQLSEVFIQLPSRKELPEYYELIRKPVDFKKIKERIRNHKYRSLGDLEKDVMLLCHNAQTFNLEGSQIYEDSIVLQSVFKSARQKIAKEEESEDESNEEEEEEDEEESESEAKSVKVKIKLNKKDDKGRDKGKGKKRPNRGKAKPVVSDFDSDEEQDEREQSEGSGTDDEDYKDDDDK
Sequence of FL-SMARCA4 (P51532 whole entry): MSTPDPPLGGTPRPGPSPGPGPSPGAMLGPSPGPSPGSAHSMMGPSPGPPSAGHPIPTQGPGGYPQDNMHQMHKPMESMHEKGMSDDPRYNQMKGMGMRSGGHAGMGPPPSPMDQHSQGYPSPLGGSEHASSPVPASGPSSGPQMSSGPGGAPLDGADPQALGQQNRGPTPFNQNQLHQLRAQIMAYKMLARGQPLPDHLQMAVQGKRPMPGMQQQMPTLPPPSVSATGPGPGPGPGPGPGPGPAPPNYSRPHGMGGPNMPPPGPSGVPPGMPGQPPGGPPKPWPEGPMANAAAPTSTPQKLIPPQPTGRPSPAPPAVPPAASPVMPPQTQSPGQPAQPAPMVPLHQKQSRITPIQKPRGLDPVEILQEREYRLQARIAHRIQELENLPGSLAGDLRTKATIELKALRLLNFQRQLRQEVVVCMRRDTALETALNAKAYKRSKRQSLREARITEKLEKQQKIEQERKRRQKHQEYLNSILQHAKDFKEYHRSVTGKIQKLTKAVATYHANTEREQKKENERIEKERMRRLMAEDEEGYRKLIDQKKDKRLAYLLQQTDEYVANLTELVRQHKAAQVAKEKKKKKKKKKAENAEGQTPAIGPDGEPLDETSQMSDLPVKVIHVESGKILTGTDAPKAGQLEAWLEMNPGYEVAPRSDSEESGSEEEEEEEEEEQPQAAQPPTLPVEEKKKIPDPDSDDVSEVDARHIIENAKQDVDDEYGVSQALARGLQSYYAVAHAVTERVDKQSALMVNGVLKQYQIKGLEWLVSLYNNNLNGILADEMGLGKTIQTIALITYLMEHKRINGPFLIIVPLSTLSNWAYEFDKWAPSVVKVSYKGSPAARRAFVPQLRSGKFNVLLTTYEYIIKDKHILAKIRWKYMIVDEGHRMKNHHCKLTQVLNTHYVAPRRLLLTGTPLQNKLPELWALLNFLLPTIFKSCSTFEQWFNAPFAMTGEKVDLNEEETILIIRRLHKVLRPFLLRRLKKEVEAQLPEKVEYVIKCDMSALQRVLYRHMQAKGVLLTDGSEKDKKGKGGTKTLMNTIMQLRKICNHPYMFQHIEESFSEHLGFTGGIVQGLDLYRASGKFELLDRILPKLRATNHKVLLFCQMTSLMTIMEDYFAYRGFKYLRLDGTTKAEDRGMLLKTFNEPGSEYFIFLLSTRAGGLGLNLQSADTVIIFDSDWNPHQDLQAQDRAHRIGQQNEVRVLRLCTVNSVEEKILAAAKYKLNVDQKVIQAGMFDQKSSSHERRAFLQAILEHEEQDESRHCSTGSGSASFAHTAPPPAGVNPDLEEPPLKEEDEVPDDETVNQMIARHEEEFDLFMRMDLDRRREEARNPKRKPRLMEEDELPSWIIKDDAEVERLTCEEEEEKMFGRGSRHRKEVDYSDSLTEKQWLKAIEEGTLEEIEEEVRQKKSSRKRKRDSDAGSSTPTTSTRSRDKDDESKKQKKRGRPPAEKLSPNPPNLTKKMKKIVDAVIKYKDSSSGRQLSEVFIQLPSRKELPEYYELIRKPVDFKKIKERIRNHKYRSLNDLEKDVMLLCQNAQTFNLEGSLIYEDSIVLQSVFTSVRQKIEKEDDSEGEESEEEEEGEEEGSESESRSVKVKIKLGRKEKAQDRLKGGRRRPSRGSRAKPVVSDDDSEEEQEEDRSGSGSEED

Compound: N#Cc1cc(C(=O)Nc2cc(F)c(=O)n(CC(F)F)c2)sc1C(F)(F)F [Compound 82c, 4-cyano-N-[1-(2,2-difluoroethyl)-5-fluoro-6-oxopyridin-3-yl]-5-(trifluoromethyl)thiophene-2-carboxamide]
- IC50 ([1]; Table 3c.1): 9.88 nM
- IC50 (FL-SMARCA4; FL-SMARCA4 IC>50, Table 3c.2): 66.1 nM
- IC50 [2, 3]: 259 nM
- IC50 [2, 4]: 170 nM
- IC50 [2, 5]: 142 nM
- IC50 [2, 6]: 1700 nM
- IC50 [2, 7]: 383 nM
- IC50 [2, 8]: 10000 nM
- IC50 [2, 9]: 9700 nM
- IC50 [2, 10]: 1700 nM
- IC50 ([2]; Homo sapiens, NCI-H1581, NCIH1581, SMARCA4 protein Absent, Lung NSCLC large cell carcinoma): 10000 nM
- IC50 [2, 11]: 10000 nM
- IC50 [2, 12]: 10000 nM
- IC50 [2, 13]: 26 nM
- IC50 (A549 cells): 259 nM

- IC50 ([1]; Table 3.1): 24.1 nM
- IC50 (FL-SMARCA4; FL-SMARCA4 IC50, Table 3.2): 165 nM
- IC50 ([2]; COV644, Ovarian Cancer): 5600 nM
- IC50 [2, 14]: 569 nM
- IC50 [2, 3]: 142 nM
- IC50 [2, 15]: 1400 nM
- IC50 [2, 4]: 715 nM
- IC50 [2, 16]: 1400 nM
- IC50 ([2]; Homo sapiens, DLD-1, DLD1, SMARCA4 protein Present, Colon Cancer adenocarcinoma): 1400 nM
- IC50 [2, 17]: 3300 nM
- IC50 [2, 5]: 836 nM
- IC50 ([2]; Homo sapiens, HT-1376, HT1376, Bladder Cancer transitional cell carcinoma): 385 nM
- IC50 ([2]; Homo sapiens, MIA PaCa-2, MIAPACA2, Pancreatic Cancer ductal carcinoma): 871 nM
- IC50 [2, 18]: 891 nM
- IC50 [2, 6]: 10000 nM
- IC50 [2, 19]: 5100 nM
- IC50 [2, 7]: 312 nM
- IC50 [2, 20]: 5000 nM
- IC50 [2, 8]: 10000 nM
- IC50 [2, 9]: 10000 nM
- IC50 [2, 21]: 10000 nM
- IC50 [2, 22]: 946 nM
- IC50 [2, 10]: 548 nM
- IC50 [2, 23]: 1400 nM
- IC50 [2, 24]: 1100 nM
- IC50 [2, 25]: 701 nM
- IC50 [2, 26]: 202 nM
- IC50 [2, 27]: 10000 nM
- IC50 [2, 28]: 1100 nM
- IC50 [2, 29]: 3900 nM
- IC50 [2, 30]: 223 nM
- IC50 [2, 31]: 10000 nM
- IC50 [2, 32]: 10000 nM
- IC50 [2, 11]: 509 nM
- IC50 ([2]; OV7, Ovarian Cancer): 154 nM
- IC50 [2, 13]: 135 nM
- IC50 (A549 cells): 142 nM
Compound: O=C(Nc1cc(F)c(=O)n(CC(F)F)c1)c1cc(Cl)c(C(F)(F)F)s1 [Compound 298, 4-Chloro-N-(1-(2,2-difluoroethyl)-5-fluoro-6-oxo-1,6-dihydropyridin-3-yl)-5-(trifluoromethyl)thiophene-2-carboxamide]

- IC50 ([1]; Table 3.1): 19.6 nM
- IC50 (FL-SMARCA4; FL-SMARCA4 IC50, Table 3.2): 54.1 nM
- IC50 [2, 14]: 677 nM
- IC50 ([2]; HCC1588, HCC1588, SMARCA4 protein Present, Lung NSCLC squamous cell carcinoma): 906 nM
- IC50 [2, 3]: 316 nM
- IC50 [2, 15]: 1700 nM
- IC50 [2, 4]: 95 nM
- IC50 [2, 16]: 1210 nM
- IC50 [2, 17]: 1270 nM
- IC50 ([2]; Homo sapiens, HCC827, HCC827, SMARCA4 protein Present, Lung NSCLC adenocarcinoma (bronchioalveolar features)): 10000 nM
- IC50 [2, 5]: 169 nM
- IC50 [2, 18]: 1100 nM
- IC50 [2, 6]: 10000 nM
- IC50 [2, 19]: 10000 nM
- IC50 [2, 7]: 347 nM
- IC50 [2, 20]: 5200 nM
- IC50 [2, 8]: 10000 nM
- IC50 [2, 9]: 10000 nM
- IC50 [2, 21]: 8800 nM
- IC50 [2, 22]: 174 nM
- IC50 ([2]; Homo sapiens, NCI-H838, NCIH838, SMARCA4 protein Present, Lung NSCLC adenocarcinoma): 10000 nM
- IC50 [2, 10]: 857 nM
- IC50 ([2]; Homo sapiens, NCI-H1395, NCIH1395, SMARCA4 protein Present, Lung NSCLC adenocarcinoma): 10000 nM
- IC50 [2, 23]: 1500 nM
- IC50 [2, 24]: 2300 nM
- IC50 [2, 25]: 504 nM
- IC50 ([2]; Homo sapiens, NCI-H1650, NCIH1650, SMARCA4 protein Present, Lung NSCLC bronchioalveolar carcinoma): 5000 nM
- IC50 [2, 26]: 101 nM
- IC50 ([2]; Homo sapiens, NCI-H1792, NCIH1792, SMARCA4 protein Present, Lung NSCLC adenocarcinoma): 10000 nM
- IC50 ([2]; Homo sapiens, NCI-H1793, NCIH1793, SMARCA4 protein Present, Lung NSCLC adenocarcinoma): 890 nM
- IC50 ([2]; Homo sapiens, NCI-H1838, NCIH1838, SMARCA4 protein Present, Lung NSCLC non-small cell lung cancer): 587 nM
- IC50 [2, 27]: 10000 nM
- IC50 [2, 28]: 1140 nM
- IC50 [2, 29]: 2800 nM
- IC50 ([2]; Homo sapiens, NCI-H2126, NCIH2126, SMARCA4 protein Present, Lung NSCLC adenocarcinoma): 5500 nM
- IC50 ([2]; Homo sapiens, NCI-H2342, NCIH2342, SMARCA4 protein Present, Lung NSCLC non-small cell lung cancer): 2500 nM
- IC50 [2, 30]: 10000 nM
- IC50 [2, 31]: 10000 nM
- IC50 [2, 32]: 1000 nM
- IC50 ([2]; NCI-H1435, NCIH1435, SMARCA4 protein Present, Lung NSCLC adenocarcinoma): 443 nM
- IC50 [2, 11]: 395 nM
- IC50 [2, 12]: 314 nM
- IC50 [2, 13]: 61 nM
- sensitivity to inhibition of SMARCA2 (IC50): cell lines with loss or absence of SMARCA4 versus cell lines with SMARCA4 protein present ([2]; lung cancer cell lines of Table 5, FIG. 1): more sensitive
- IC50 (A549 cells): 316 nM
Compound: N#Cc1sc(C(=O)Nc2cc(F)c(=O)n(CCF)c2)cc1Cl [Compound 139]
